Experimental data as given in patent publication US12662491B2 (Redona Therapeutics, Inc., priority 2020, dated 2026).

biological target: T1, Zcchc11 enzyme (Homo sapiens, UniProt Q5TAX3); assay: TUTase assay (Zcchc11 assay, Lin28a-dependent polyuridylation of pre-let-7); format: biochemical; details: LIN28A 10 nM, Zcchc11 0.2 nM, 5′-fluorescein pre-let-7 miRNA 2 nM, UTP 5 uM, room temperature, 30 minutes pre-incubation; read-out: Potency Lin28a-dep Z11 IC50
T1 construct: made in house; host or cells: HEK293 cells (Zcchc11); E. coli Rosetta II (LIN28A)
T1 sequence (Q5TAX3 212-1420): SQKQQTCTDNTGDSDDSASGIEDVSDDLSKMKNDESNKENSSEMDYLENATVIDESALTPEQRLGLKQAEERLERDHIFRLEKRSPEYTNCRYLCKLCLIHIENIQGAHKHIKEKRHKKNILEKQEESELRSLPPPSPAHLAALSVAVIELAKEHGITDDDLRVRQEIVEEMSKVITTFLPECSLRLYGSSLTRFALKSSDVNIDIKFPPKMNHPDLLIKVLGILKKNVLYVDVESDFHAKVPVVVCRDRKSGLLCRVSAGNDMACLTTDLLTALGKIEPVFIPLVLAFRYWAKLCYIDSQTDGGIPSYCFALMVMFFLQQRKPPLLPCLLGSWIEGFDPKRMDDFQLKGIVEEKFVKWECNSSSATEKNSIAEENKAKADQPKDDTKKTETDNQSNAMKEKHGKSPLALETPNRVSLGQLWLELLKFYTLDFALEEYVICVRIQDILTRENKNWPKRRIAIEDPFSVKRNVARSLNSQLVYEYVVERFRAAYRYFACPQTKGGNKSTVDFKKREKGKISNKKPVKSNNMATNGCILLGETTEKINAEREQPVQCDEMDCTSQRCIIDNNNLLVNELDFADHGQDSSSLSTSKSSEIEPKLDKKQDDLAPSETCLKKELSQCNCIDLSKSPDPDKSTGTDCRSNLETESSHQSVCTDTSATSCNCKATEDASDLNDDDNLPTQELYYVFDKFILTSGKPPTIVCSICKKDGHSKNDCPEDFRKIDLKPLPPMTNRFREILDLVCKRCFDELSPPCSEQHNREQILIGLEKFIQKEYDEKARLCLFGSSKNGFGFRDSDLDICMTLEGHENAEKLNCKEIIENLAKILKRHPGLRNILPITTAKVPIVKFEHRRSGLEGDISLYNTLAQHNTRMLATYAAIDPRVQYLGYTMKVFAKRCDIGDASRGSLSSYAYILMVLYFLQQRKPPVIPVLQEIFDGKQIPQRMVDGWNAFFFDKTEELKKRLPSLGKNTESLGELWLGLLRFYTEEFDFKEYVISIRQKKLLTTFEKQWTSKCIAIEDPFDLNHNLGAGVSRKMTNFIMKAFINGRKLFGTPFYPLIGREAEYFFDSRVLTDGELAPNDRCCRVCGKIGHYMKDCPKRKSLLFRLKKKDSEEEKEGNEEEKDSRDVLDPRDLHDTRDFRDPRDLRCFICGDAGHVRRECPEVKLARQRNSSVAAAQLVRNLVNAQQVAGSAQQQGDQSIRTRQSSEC
Method in brief: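 Potency is measured as inhibition of LIN28A-driven U-tail addition to 2 nM pre-let-7 by 0.2 nM HEK293-derived Zcchc11 fragment with 5 uM UTP at room temperature. Tail growth appears as fluorescein quenching by an annealing rhodamine-A20 probe.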

IC50 [nM] | SMILES
≤ 1000 | Nc1ccc(-n2cc(C(=O)O)c(=O)c3cc(Cl)c(N4CCC[C@@H]4COc4ncccc4Cl)cc32)cn1 [Example 40, (R)-1-(6-aminopyridin-3-yl)-6-chloro-7-(2-(((3-chloropyridin-2-yl)oxy)methyl)pyrrolidin-1-yl)-4-oxo-1,4-dihydroquinoline-3-carboxylic acid]

same assay, conditions: Lin28a-dependent Zcchc11 (Z11) TUTase activity; read-out: Potency Lin28a-dep Z11 IC50

IC50 [nM] | SMILES
≤ 1000 | O=C(O)c1cn(-c2ccc(O)cc2F)c2cc(N3CCC[C@@H]3COc3ccccn3)c(F)cc2c1=O [Compound 83, (R)-6-fluoro-1-(2-fluoro-4-hydroxy-phenyl)-4-oxo-7-(2-((pyridin-2-yloxy)methyl)pyrrolidin-1-yl)-1,4-dihydro-quinoline-3-carboxylic acid]
≤ 1000 | CS(=O)(=O)Nc1ccc(-n2cc(C(=O)O)c(=O)c3cc(F)c(N4CCC[C@@H]4COc4ccccn4)cc32)cc1 [Compound 148, (R)-6-fluoro-1-(4-(methyl-sulfonamido)phenyl)-4-oxo-7-(2-((pyridin-2-yloxy)methyl)pyrrolidin-1-yl)-1,4-dihydro-quinoline-3-carboxylic acid]
≤ 1000 | COc1cccnc1OC[C@H]1CCCN1c1cc2c(cc1F)c(=O)c(C(=O)O)cn2-c1ccccc1 [Compound 99, (R)-6-fluoro-7-(2-(((3-methoxy-pyridin-2-yl)oxy)methyl)pyrrolidin-1-yl)-4-oxo-1-phenyl-1,4-dihydro-quinoline-3-carboxylic acid]
≤ 1000 | Cc1cccnc1OC[C@H]1CCCN1c1cc2c(cc1Cl)c(=O)c(C(=O)O)cn2-c1cnccn1 [Compound 212, 6-Chloro-7-[(2R)-2-{[(3-methylpyridin-2-yl)oxy]methyl}pyrrolidin-1-yl]-4-oxo-1-(pyrazin-2-yl)quinoline-3-carboxylic acid]
10000 to 50000 | CN(C)C1CN(c2ccc(-n3cc(C(=O)O)c(=O)c4cc(Cl)c(N5C(=O)CCCC5COc5ccccn5)cc43)cn2)C1 (centres unmarked) [Compound 324, 6-Chloro-1-[6-[3-(dimethyl-amino)azetidin-1-yl]pyridin-3-yl]-4-oxo-7-[2-oxo-6-[(pyridin-2-yloxy)methyl]piperidin-1-yl]quinoline-3-carboxylic acid]
≤ 1000 | CN(C)C1CN(c2ccc(-n3cc(C(=O)O)c(=O)c4cc(Cl)c(N5CC(F)(F)C[C@@H]5COc5ncccc5Cl)nc43)cn2)C1 [Compound 301, (R)-6-chloro-7-(2-(((3-chloropyridin-2-yl)oxy)methyl)-4,4-difluoro-pyrrolidin-1-yl)-1-(6-(3-(dimethyl-amino)azetidin-1-yl)pyridin-3-yl)-4-oxo-1,4-dihydro-1,8-naphthyridine-3-carboxylic acid]
≤ 1000 | Cc1ccc(Cl)c(OC[C@H]2C[C@H]3C[C@H]3N2c2cc3c(cc2Cl)c(=O)c(C(=O)O)cn3-c2ccc(N(C)C)nc2)n1 [Compound 308, 6-chloro-7-[(1R,3R,5R)-3-{[(3-chloro-6-methylpyridin-2-yl)oxy]methyl}-2-azabicyclo [3.1.0]hexan-2-yl]-1-[6-(dimethyl-amino)pyridin-3-yl]-4-oxoquinoline-3-carboxylic acid]
1000 to 10000 | O=C(O)c1cn(-c2cccc(F)c2F)c2cc(N3CCC[C@@H]3COc3ccccn3)c(F)cc2c1=O [Compound 142, (R)-1-(2,3-difluorophenyl)-6-fluoro-4-oxo-7-(2-((pyridin-2-yloxy)methyl)pyrrolidin-1-yl)-1,4-dihydro-quinoline-3-carboxylic acid]
1000 to 10000 | O=C(O)c1cn(C2COC2)c2cc(N3CCC[C@@H]3COc3ccccn3)c(F)cc2c1=O [Compound 163, (R)-6-fluoro-1-(oxetan-3-yl)-4-oxo-7-(2-((pyridin-2-yloxy)methyl)pyrrolidin-1-yl)-1,4-dihydro-quinoline-3-carboxylic acid]

same assay, conditions: Lin28a-dependent Zcchc11 (Z11) TUTase assay; read-out: Potency Lin28a-dep Z11 IC50

IC50 [nM] | SMILES
≤ 1000 | COc1ccc(Cl)c(OC[C@H]2CC3CC3N2c2cc3c(cc2Cl)c(=O)c(C(=O)O)cn3-c2ccc(N3CC(N(C)C)C3)nc2)n1 (stereo partly drawn) [Example 654, 6-chloro-7-((3R)-3-(((3-chloro-6-methoxypyridin-2-yl)oxy)methyl)-2-azabicyclo[3.1.0]hexan-2-yl)-1-(6-(3-(dimethylamino)azetidin-1-yl)pyridin-3-yl)-4-oxo-1,4-dihydroquinoline-3-carboxylic acid]
1000 to 10000 | O=C(O)c1cn(C2COC2)c2cc(N3CCC[C@@H]3COc3ccccn3)c(F)cc2c1=O [Example 451, (R)-6-fluoro-1-(oxetan-3-yl)-4-oxo-7-(2-((pyridin-2-yloxy)methyl)pyrrolidin-1-yl)-1,4-dihydroquinoline-3-carboxylic acid]
1000 to 10000 | O=C(O)c1cn(C2CC3(CNC3)C2)c2cc(N3CCC[C@@H]3COc3ncccc3Cl)c(Cl)cc2c1=O [Example 369, 1-{2-Azaspiro[3.3]heptan-6-yl}-6-chloro-7-[(2R)-2-{[(3-chloropyridin-2-yl)oxy]methyl}pyrrolidin-1-yl]-4-oxo-1,4-dihydroquinoline-3-carboxylic acid]
≤ 1000 | COCCOc1ccc(-n2cc(C(=O)O)c(=O)c3cc(F)c(N4CCC[C@@H]4COc4ccccn4)cc32)cc1 [Example 406, (R)-6-fluoro-1-(4-(2-methoxyethoxy)phenyl)-4-oxo-7-(2-((pyridin-2-yloxy)methyl)pyrrolidin-1-yl)-1,4-dihydroquinoline-3-carboxylic acid]
≤ 1000 | COc1ccc(Cl)c(OC[C@H]2C[C@@H](O)CN2c2cc3c(cc2Cl)c(=O)c(C(=O)O)cn3-c2ccc(N3CC(N(C)C)C3)nc2)n1 [Example 641, 6-chloro-7-((2R,4R)-2-(((3-chloro-6-methoxypyridin-2-yl)oxy)methyl)-4-hydroxypyrrolidin-1-yl)-1-(6-(3-(dimethylamino)azetidin-1-yl)pyridin-3-yl)-4-oxo-1,4-dihydroquinoline-3-carboxylic acid]
≤ 1000 | COc1ccc(Cl)c(OC[C@H]2C[C@H]3C[C@H]3N2c2cc3c(cc2Cl)c(=O)c(C(=O)O)cn3-c2ccc(N3CC(N(C)C)C3)nc2)n1 [Example 660, 6-chloro-7-((1R,3R,5R)-3-(((3-chloro-6-methoxypyridin-2-yl)oxy)methyl)-2-azabicyclo[3.1.0]hexan-2-yl)-1-(6-(3-(dimethylamino)azetidin-1-yl)pyridin-3-yl)-4-oxo-1,4-dihydroquinoline-3-carboxylic acid]
1000 to 10000 | Cc1cccnc1OC[C@H]1CCCN1c1cc2c(cc1Cl)c(=O)c(C(=O)O)cn2C1CNC1 [Example 366, 1-(Azetidin-3-yl)-6-chloro-7-[(2R)-2-{[(3-methyl-pyridin-2-yl)oxy]methyl}pyrrolidin-1-yl]-4-oxo-1,4-dihydroquinoline-3-carboxylic acid]
1000 to 10000 | Cc1cccnc1OC[C@H]1CCCN1c1cc2c(cc1Br)c(=O)c(C(=O)O)cn2C1(C)CC1 [Example 365, 6-Bromo-1-(1-methylcyclo-propyl)-7-[(2R)-2-{[(3-methyl-pyridin-2-yl)oxy]methyl}pyrrolidin-1-yl]-4-oxo-1,4-dihydroquinoline-3-carboxylic acid]
≤ 1000 | O=C(O)c1cn(-c2ccc(N3CC(O)C3)nc2)c2cc(N3CCC[C@@H]3COc3ncccc3Cl)c(Cl)cc2c1=O [Example 423, (R)-6-chloro-7-(2-(((3-chloropyridin-2-yl)oxy)methyl)pyrrolidin-1-yl)-1-(6-(3-hydroxy-azetidin-1-yl)pyridin-3-yl)-4-oxo-1,4-dihydroquinoline-3-carboxylic acid]
≤ 1000 | COc1ccc(-n2cc(C(=O)O)c(=O)c3cc(F)c(N4CCC[C@@H]4COc4ccccn4)cc32)cc1 [Example 401, (R)-6-fluoro-1-(4-methoxyphenyl)-4-oxo-7-(2-((pyridin-2-yloxy)methyl)pyrrolidin-1-yl)-1,4-dihydroquinoline-3-carboxylic acid]
